Data set [1] is described as follows: Investigation of plasma stability (Tam-labeled peptides, RP-HPLC). It is filed as in vitro ADME. The settings on record: Tam-modified peptides, 10^−5 M in human blood plasma, 37 °C; one-phase decay.
Protocol: Investigation of peptide stability in blood plasma was carried out as described previously [22]. Tam-labeled peptides were dissolved in human blood plasma at a concentration of 10^−5 M and incubated at 37 °C and 250 rpm. Samples taken at the respective time points were added to a solution of 0.1% SDS in ACN/EtOH (1:1). After incubation at −20 °C for 20 min, the supernatant was transferred to a new tube and incubated again at −20 °C for at least 3 h. […] Peaks were integrated, and the peak containing the intact peptide was normalized to the sample taken at t = 0 min (100%). Plasma half-life was determined using one-phase decay in Prism 5 (GraphPad, San Diego, CA, USA).
Data set [2] concerns HEK293 cells transiently transfected with CMKLR1-eYFP. Description: Live cell fluorescence microscopy of peptide uptake. The class given is cell-based. The settings on record: 1 µM Tam-labeled peptide, 60 min. How it is done: For fluorescence microscopy, HEK293 cells were seeded into Ibidi 15 µ-slides (140,000 cells/200 µL/well) coated with poly D-lysine and grown overnight. Next, cells were transfected with 900 ng CMKLR1-eYFP. Transfection was achieved using Lipofectamine 2000 according to the manufacturer’s protocol. One day post-transfection, fluorescence microscopy experiments were performed on an AxioVision Observer.Z1 microscope equipped with an ApoTome imaging system (Zeiss, Jena, Germany). […] To observe peptide uptake, cells were stimulated with 1 µM Tam-chemerin-9 in OptiMEM, which was replaced with acidic wash (50 mM glycine, 100 mM NaCl, pH 3) in HBSS after the indicated time, followed by two washing steps with OptiMEM. Microscopy was carried out in OptiMEM.

For data set [3], the system named is HEK293 cells stably transfected with CMKLR1-eYFP. Kind of data set: Quantification of peptide uptake using a High Content Imager. The class given is cell-based. The settings on record: 1 µM Tam-labeled peptide, up to 1 h. How it is done:
Cells were stimulated with 1 µM of the respective, Tam-labeled peptide for the specified periods, followed by washing with acidic wash (50 mM glycine, 100 mM NaCl, pH 3) in HBSS. Microscopy was carried out in OptiMEM using an ImageXpress Micro Confocal High-Content Imaging System (Molecular Devices, San José, CA, USA), using the appropriate filters for the respective fluorophores (Table 1). The fluorescence intensity per cell was automatically analyzed for each well by a module detecting the nuclei (5–30 µm in diameter and 100 gray levels above background) and the granules by Tam-peptide fluorescence (2–5 µm in diameter, 70 gray levels above background).

Data set [4] shares this test system. Description: Resazurin-based cell viability assay, HEK293-CMKLR1. The settings on record: Homo sapiens; HEK293-CMKLR1, 72 h; read-out: IC50 (toxicity). As to the method:
(§1) HEK293 cells stably transfected with CMKLR1-eYFP, empty HEK293 cells (15,000 cells in 100 µL suspension/well), or HMEC-1 cells (5000 cells in 100 µL suspension/well) in their respective cell culture media were seeded in 96 well plates (coated with poly D-lysine for HEK cells) and incubated at standard conditions overnight. Afterward, cells were incubated with peptides or MTX dissolved in cell culture media, and a medium without peptides was used as a control. […] Ethanol or media was removed and a 50 µL resazurin-based in vitro toxicology assay kit (Sigma-Aldrich, St. Lous, MO, USA) in cell culture media (1:10) was added to each well. After 1 h incubation time, the conversion of the resazurin was detected by measuring the fluorescence intensity at λem = 590 nm. All experiments were performed in duplicates and each experiment was repeated at least three times. Nonlinear regression was calculated using GraphPad Prism 5, curves were normalized to untreated and ethanol-treated cells.

The subject of data set [5] is untransfected HEK293 cells. Description: Resazurin-based cell viability assay, untransfected HEK293. The settings on record: Homo sapiens; HEK293 cells devoid of CMKLR1, 72 h; read-out: IC50 (toxicity). As to the method:
as §1

The test system of another data set is HMEC-1 cells. Description: Resazurin-based cell viability assay, HMEC-1. The settings on record: Homo sapiens; HMEC-1 cells endogenously expressing CMKLR1, 72 h; read-out: IC50 (toxicity). As to the method: as §1

The source of these data is paper PMC8345219 (Cancers, 2021).

Each structure is given as a SMILES string. Where a SMILES comes first, the peptide text is derived from it. Bridges are numbered along the chain shown (N, C = ends). [ ]: non-standard residue; d: D form. The star is where a group is joined. X1 = CN(C)c1ccc2c(c1)Oc1cc(N(C)C)ccc1C21OC(=O)c2ccc(C(=O)*)cc21; PEG4 = NCCOCCOCCOCCOCCC(=O)O; d(hCys) = N[C@H](CCS)C(=O)O

`C[C@@H]1NC(=O)[C@H](Cc2ccccc2)NC(=O)[C@H](CCC(N)=O)NC(=O)[C@H](NC(=O)[C@@H]2CCCN2C(=O)[C@H](Cc2ccccc2)NC(=O)[C@H](Cc2ccc(O)cc2)NC(=O)CCOCCOCCOCCOCCNC(=O)c2ccc3c(c2)C2(OC3=O)c3ccc(N(C)C)cc3Oc3cc(N(C)C)ccc32)CCSSC[C@@H](C(=O)O)NC(=O)[C@H](Cc2ccccc2)NC1=O` [Compound 12T, Tam-EG(4)-YFP(xQFAFC)] ({X1-PEG4}-YFP[d(hCys)]QFAFC-OH; disulfide 4-9): in data set [1], the half-life is > 48 h. Further, in data set [2], the “intracellular Tam-fluorescence (peptide uptake)” value is on record as “pronounced intracellular fluorescence is visible after 60 min of stimulation”. Besides, in data set [3], the “intracellular accumulation of Tam-fluorescence over time” value is reported as “comparable intracellular accumulation over time”.

On to `CN(Cc1cnc2nc(N)nc(N)c2n1)c1ccc(C(=O)N[C@@H](CCC(=O)O)C(=O)O)cc1` [MTX, Methotrexate, reference compound], for which the figures for the IC50 (in data set [4]; in data set [5]; in the data set on HMEC-1 cells) were 0.471 µM, 0.373 µM and 10 µM, respectively.
